The source of these data is patent US20170196859A1, “PHARMACEUTICAL COMPOSITION COMPRISING PYRAZINE CARBOXAMIDE COMPOUND AS ACTIVE INGREDIENT” (Astellas Pharma Inc., priority 2014, published 2017).

The subject of experiment [1] is human anaplastic large cell lymphoma cell line SU-DHL-1 cells. Description: Proliferation inhibition, SU-DHL-1 cells (CellTiter-Glo). Format: cell-based. The following applies: SU-DHL-1, 96 h, 4 days culture. How it is done: SU-DHL-1 is a cell line originated from human anaplastic large cell lymphoma and the activation of JAK 3 has been confirmed (Leukemia. 2014; 28:941-944). The human anaplastic large cell lymphoma cell line SU-DHL-1 cells (American Type Culture Collection, CRL-2955) cultured in RPMI1640 medium (Sigma) containing 10% bovine serum were seeded into 96 well plates. On the same day, DMSO solutions of the test compound B at a final concentrations from 1 nM to 10 μM or only DMSO (DMSO group) was added thereto to culture the cells at 37° C. in 5% CO2 for 4 days. Thereafter, the cell number was measured using a cell counting reagent (CellTiter-Glo (registered trademark) Luminescent Cell Viability Assay (Promega)). The cell proliferation inhibition rate was calculated as the measured value in the DMSO group set as 0% inhibition and the measured value in the well only with the medium on which the cells have not been seeded set as 100% inhibition.
Background: In ATP-based viability assays light output follows the ATP content of the culture.

A further experiment addresses T1, ITK kinase (Homo sapiens, UniProt Q08881).
T1 sequence (Q08881 1-620): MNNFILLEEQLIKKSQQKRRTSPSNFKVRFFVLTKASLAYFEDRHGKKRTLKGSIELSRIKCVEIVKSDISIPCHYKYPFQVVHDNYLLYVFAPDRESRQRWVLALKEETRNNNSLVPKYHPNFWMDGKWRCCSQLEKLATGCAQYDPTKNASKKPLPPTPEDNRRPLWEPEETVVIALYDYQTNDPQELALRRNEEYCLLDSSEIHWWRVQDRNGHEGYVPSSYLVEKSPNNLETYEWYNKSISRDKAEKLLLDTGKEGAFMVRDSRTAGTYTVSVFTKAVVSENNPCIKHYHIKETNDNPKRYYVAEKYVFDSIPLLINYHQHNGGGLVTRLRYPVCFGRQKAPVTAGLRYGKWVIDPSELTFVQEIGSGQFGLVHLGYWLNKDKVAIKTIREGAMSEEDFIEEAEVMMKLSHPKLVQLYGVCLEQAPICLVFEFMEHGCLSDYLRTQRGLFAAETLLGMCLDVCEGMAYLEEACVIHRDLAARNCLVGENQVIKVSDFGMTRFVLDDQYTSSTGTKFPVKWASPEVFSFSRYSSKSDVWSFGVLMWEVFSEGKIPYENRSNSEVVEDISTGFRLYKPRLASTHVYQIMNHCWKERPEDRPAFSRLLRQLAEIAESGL
Description: ITK kinase inhibitory activity (Mobility Shift Assay). Format: biochemical. The settings on record: ATP 1000 μM, read-out: inhibitory % against ITK kinase activity. As for the experimental part:
The ITK kinase inhibitory activity was evaluated using Mobility Shift Assay system.
The test compound B was dissolved in dimethyl sulfoxide (DMSO) to prepare a solution at a 100-fold concentration as compared to the test concentration. The solution was also 25-fold diluted with an assay buffer (20 mM HEPES, 0.01% Triton X-100, 1 mM DTT, pH 7.5) to obtain a test substance solution.
5 μL of the test compound B solution at a 4-fold concentration, prepared using the aforementioned assay buffer, and 10 μL of a ITK kinase solution at a 2-fold concentration were mixed within a well of a 384 well plate, and incubated at room temperature for 30 minutes. Continuously, 5 μL of a substrate peptide (Srctide, PEPTIDE INSTITUTE, INC. #AD-995)/ATP/MgCl2 solution at a 4-fold concentration was added thereto to perform the reaction at room temperature for 1 hour. The substrate peptide was used at a final concentration of 1000 nM, ATP at a final concentration of 1000 μM, and MgCl2 at a final concentration of 5 mM. Thereafter, 60 μL of a termination buffer (127 mM HEPES, 0.01% Triton X-100, 26.7 mM EDTA, 1% DMSO, pH 7.5) was added thereto to stop the reaction. The ITK kinase activity was calculated by quantifying a product conversion ratio obtained from the substrate peptide peak height and the product (phosphorylated substrate peptide) peak height with LabChip3000 (PerkinElmer). […]

The subject of experiment [2] is human mantle cell lymphoma cell line Rec-1 cells. Description: Proliferation inhibition, Rec-1 cells (CellTiter-Glo). It counts as cell-based. The following applies: Rec1, 72 h, 3 days culture. How it is done:
Rec-1 is a cell line originated from human mantle cell lymphoma, a kind of B-cell malignant neoplasm, and the BTK expression and phosphorylation have been confirmed (Cell Oncol. 2011; 34:141-153). The human mantle cell lymphoma cell line Rec-1 cells (American Type Culture Collection, CRL-3004) cultured in RPMI1640 medium (Sigma) containing 10% bovine serum were seeded into 96 well plates. On the next day, DMSO solutions of the test compound B at final concentrations from 1 nM to 10 μM or only DMSO (DMSO group) were added thereto to culture the cells at 37° C. in 5% CO2 for 3 days. Thereafter, the cell number was measured using a cell counting reagent (CellTiter-Glo (registered trademark) Luminescent Cell Viability Assay (Promega)). The cell proliferation inhibition rate was calculated as the measured value in the DMSO group set as 0% inhibition and the measured value in the well only with the medium on which the cells have not been seeded set as 100% inhibition.

Experiment [3] deals with human lymphoblastic leukemia cell line MOLT-4 cells. Description: Proliferation inhibition, MOLT-4 cells (CellTiter-Glo). It counts as cell-based. The following applies: MOLT-4, 96 h, 4 days culture. How it is done:
MOLT-4 is a cell lines originated from human lymphoblastic leukemia and the ITK expression has been confirmed (Mol. Pharmacol. 2012; 82:938-947). The human lymphoblastic leukemia cell line MOLT-4 cells (European Collection of Cell Cultures, 85011413) cultured in RPMI1640 medium (Sigma) containing 10% bovine serum were inoculated into 96 well plates. On the same day, DMSO solutions of the test compound B at final concentrations from 1 nM to 10 μM or only DMSO (DMSO group) were added thereto to culture the cells at 37° C. in 5% CO2 for 4 days. Thereafter, the cell number was measured using a cell counting reagent (CellTiter-Glo (registered trademark) Luminescent Cell Viability Assay (Promega)). The cell proliferation inhibition rate was calculated as the measured value in the DMSO group set as 0% inhibition and the measured value in the well only with the medium on which the cells have not been seeded set as 100% inhibition.

What is called IC50 is the point on the concentration scale where inhibition reaches its midpoint.

In the case of `C=CC(=O)N1CC[C@@H](Oc2nc(Nc3ccc(N4CCC(N5CCN(C)CC5)CC4)cc3)c(C(N)=O)nc2CC)C1` [test compound B, 5-{[(3R)-1-acryloylpyrrolidin-3-yl]oxy}-6-ethyl-3-({4-[4-(4-methylpiperazin-1-yl)piperidin-1-yl]phenyl}amino)pyrazine-2-carboxamide monomethanesulfonate], the IC50 in experiment [1] amounted to 120 nM; in experiment [2], 68 nM; in experiment [3] it was 410 nM. The inhibition at 0.001 µM on ITK kinase (1 nM test compound) worked out at 29.5%. Besides, the inhibition at 0.01 µM at ITK kinase (10 nM test compound) was found to be 92.6%.
